Reference: the supplement of paper PMC10307832

Tests used:
Test in all cases: relative viability (nuclei count vs DMSO), 5 days (fraction); higher = more cells survive
[1] = compound: O=C(O)C(Cc1ccccc1[N+](=O)[O-])=NNc1nc(-c2ccc(Cl)c(Cl)c2)cs1 (mixture of isomers) [4EGI-1] + CCNC(=O)c1noc(-c2cc(C(C)C)c(O)cc2O)c1-c1ccc(CN2CCOCC2)cc1 [Luminespib] (partner 0.01 µM)
Outline: (§1)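 After 5 days of treatment, lung cancer cells in 1536-well plates were fixed and stained in a single step (final 0.05% Triton X-100, 1% formaldehyde, 1 ug/ml Hoechst) and their nuclei counted on 4× images. Treatment had been applied by pin tool the day after seeding as one drug alone or as a fixed anchor-drug dose with five library-drug doses (not always all listed) in √10 steps. Relative viability is the nuclei count of treated wells divided by that of vehicle wells, and values are medians of duplicate plates.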

[2] = compound: O=C(O)C(Cc1ccccc1[N+](=O)[O-])=NNc1nc(-c2ccc(Cl)c(Cl)c2)cs1 (mixture of isomers) [4EGI-1] + CC(=O)c1c(C)c2cnc(Nc3ccc(N4CCNCC4)cn3)nc2n(C2CCCC2)c1=O [Palbociclib] (partner 0.5 µM)
Outline: as §1

[3] = compound: CN1CCN(CC1)C2=CC(=C(C=C2)NC3=NC=C4C(=N3)N(C5=CC=CC=C5C(=O)N4C)C)OC [XMD8-85] + CS(=O)(=O)CCNCc1ccc(-c2ccc3ncnc(Nc4ccc(OCc5cccc(F)c5)c(Cl)c4)c3c2)o1 [Lapatinib] (partner 2 µM)
Outline: as §1

[4] = compound: O=C(O)C(Cc1ccccc1[N+](=O)[O-])=NNc1nc(-c2ccc(Cl)c(Cl)c2)cs1 (mixture of isomers) [4EGI-1] + N=C(N)NC(=N)NCCc1ccccc1 [Phenformin] (partner 250 µM)
Outline: as §1

Row | Cell Line | relative viability ([1]; first compound 0.5 µM) | relative viability ([1]; first compound 1.581 µM) | relative viability ([1]; first compound 5 µM) | relative viability ([1]; first compound 15.81 µM) | relative viability ([1]; first compound 50 µM) | relative viability ([2]; first compound 0.5 µM) | relative viability ([2]; first compound 5 µM) | relative viability ([2]; first compound 15.81 µM) | relative viability ([2]; first compound 50 µM) | relative viability ([3]; first compound 0.08 µM) | relative viability ([3]; first compound 0.253 µM) | relative viability ([3]; first compound 0.8 µM) | relative viability ([3]; first compound 2.53 µM) | relative viability ([3]; first compound 8 µM) | relative viability ([4]; first compound 0.5 µM) | relative viability ([4]; first compound 1.581 µM) | relative viability ([4]; first compound 5 µM) | relative viability ([4]; first compound 15.81 µM) | relative viability ([4]; first compound 50 µM) | relative viability ([2]; first compound 1.581 µM)
1 | NCI-H1395 | 0.717 | 0.436 | 0.766 | 0.789 | 0.496 | 0.697 | 0.634 | 0.594 | 0.485 | 0.9 | 1.11 | 0.927 | 0.95 | 0.679 | 0.455 | 0.362 | 0.508 | 0.399 | 0.34 | 
2 | NCI-H460 | 0.038 |  | 0.0367 | 0.0323 | 0.0228 | 0.169 | 0.245 | 0.141 | 0.0263 | 0.551 | 0.84 | 1.27 | 1.29 | 0.406 | 0.549 |  | 0.593 | 0.243 | 0.0399 | 0.05
3 | NCI-H2228 | 0.147 | 0.148 | 0.258 | 0.135 | 0.17 | 1.22 | 0.785 | 0.787 | 0.314 | 0.827 | 0.93 | 1.14 |  | 0.549 | 0.314 | 0.313 | 0.379 | 0.298 | 0.141 | 0.708
4 | HOP-62 | 0.974 |  | 0.868 | 0.89 | 0.31 | 0.449 | 0.489 | 0.505 | 0.319 | 1.11 | 0.904 | 0.978 | 1.13 | 0.797 | 0.677 | 0.446 | 0.73 | 0.667 | 0.537 | 0.416
5 | LC-2-ad | 1.13 |  | 0.906 | 0.385 | 0.269 | 0.49 | 0.469 | 0.417 | 0.305 | 1.03 | 0.976 | 0.984 | 1 | 0.702 | 0.601 |  | 0.649 | 0.342 | 0.265 | 0.514
6 | EKVX | 0.847 | 0.628 | 0.925 | 0.701 | 0.895 | 0.456 | 0.365 | 0.23 | 0.307 | 0.198 | 0.217 | 0.203 | 0.209 | 0.208 | 0.223 | 0.213 | 0.234 | 0.189 | 0.215 | 
7 | NCI-H1651 | 0.975 | 0.658 | 1.01 | 0.933 | 0.924 | 0.559 | 0.493 | 0.534 | 0.509 | 0.764 | 0.842 | 0.96 | 0.977 | 0.555 | 0.345 | 0.295 | 0.35 | 0.267 | 0.231 | 0.478
8 | SK-LU-1 | 0.191 | 0.208 | 0.208 | 0.201 | 0.199 | 0.439 | 0.414 | 0.386 | 0.289 | 0.549 | 0.892 | 0.852 | 1.07 | 0.699 | 0.653 | 0.546 | 0.681 | 0.632 | 0.264 | 0.44
9 | NCI-H2405 | 0.7 | 0.486 | 0.836 | 0.672 | 0.771 | 0.606 | 0.508 | 0.55 | 0.329 | 1.04 | 1.18 | 1.13 | 1.1 | 0.636 | 0.419 | 0.338 | 0.421 | 0.409 | 0.409 | 
10 | HCC-15 | 0.25 | 0.437 | 0.268 | 0.157 | 0.152 | 0.677 | 0.788 | 0.679 | 0.292 | 0.851 | 0.879 | 0.863 | 0.948 | 0.747 | 0.494 |  | 0.473 | 0.47 | 0.161 | 0.747
11 | NCI-H1650 | 0.197 |  | 0.19 | 0.203 | 0.221 | 0.417 | 0.331 | 0.255 | 0.141 | 0.729 | 0.819 | 0.92 | 0.671 | 0.281 | 0.456 |  | 0.401 | 0.284 | 0.206 | 
12 | COR-L23 | 0.843 | 0.519 | 0.77 | 0.579 | 0.0992 | 0.382 | 0.3 | 0.205 | 0.101 | 0.896 | 1.09 | 1.11 | 1.08 | 0.913 | 0.49 | 0.275 | 0.429 | 0.296 | 0.144 | 0.214
13 | PC-3 [JPC-3] | 0.829 | 0.717 | 0.718 |  | 0.543 | 0.472 | 0.573 | 0.472 | 0.458 | 0.405 | 0.466 | 0.477 | 0.492 | 0.422 | 0.484 | 0.486 | 0.476 |  | 0.431 | 
14 | A-427 | 1.04 | 0.658 | 1.01 | 0.793 | 0.315 | 0.543 | 0.535 | 0.492 | 0.319 | 1.05 | 0.994 | 1.09 | 1.1 | 0.937 | 0.331 | 0.316 | 0.326 | 0.274 | 0.156 | 
15 | NCI-H1755 | 0.583 | 0.665 | 0.418 | 0.42 | 0.327 | 0.439 | 0.425 | 0.435 | 0.406 | 0.943 | 1.1 | 1.05 | 1.17 | 0.996 | 0.699 | 0.636 | 0.646 | 0.625 | 0.397 | 0.424
16 | NCI-H2347 | 0.499 |  | 0.438 | 0.426 | 0.411 | 0.427 | 0.447 | 0.413 | 0.34 | 0.892 | 0.958 | 0.9 | 1.02 | 0.771 | 0.614 |  | 0.379 | 0.363 | 0.344 | 0.405
17 | NCI-H2170 | 0.931 | 0.635 | 0.778 | 0.741 | 0.352 | 0.423 | 0.382 | 0.392 | 0.273 | 0.277 | 0.302 | 0.253 | 0.256 | 0.249 | 0.419 | 0.452 | 0.426 | 0.333 | 0.274 | 0.363
18 | LXF-289 | 0.745 | 0.62 | 0.745 | 0.644 | 0.407 | 0.603 | 0.582 | 0.553 | 0.518 | 0.887 | 0.855 | 0.892 | 0.903 | 0.818 | 0.535 | 0.514 | 0.513 | 0.485 | 0.291 | 0.602
19 | NCI-H1666 | 1.1 | 0.982 | 1.04 | 0.812 | 0.397 | 0.673 | 0.633 | 0.641 | 0.598 | 0.58 | 0.709 | 0.92 | 0.816 | 0.499 | 0.537 | 0.554 | 0.563 | 0.51 | 0.398 | 0.693
20 | NCI-H2126 | 0.993 |  | 0.96 | 0.855 | 0.678 | 0.324 | 0.326 | 0.343 | 0.339 | 0.705 | 0.714 | 0.757 | 0.837 | 0.646 | 0.553 |  | 0.569 | 0.488 | 0.463 | 0.371
21 | NCI-H1993 | 1.03 | 0.786 | 0.801 | 0.637 | 0.496 | 0.727 | 0.584 | 0.52 | 0.366 | 0.662 | 0.755 | 0.93 | 0.819 | 0.774 | 0.536 | 0.452 | 0.481 | 0.631 | 0.5 | 0.624
22 | LOU-NH91 | 0.351 |  | 0.398 | 0.328 | 0.34 | 0.493 | 0.519 | 0.581 | 0.52 |  | 0.736 | 0.76 | 0.761 | 0.57 | 0.742 |  | 0.703 | 0.456 | 0.534 | 
23 | NCI-H1437 | 1.19 | 1.05 | 1.15 | 0.862 | 0.457 | 0.368 | 0.335 | 0.279 | 0.168 | 0.785 | 0.888 | 0.804 | 0.792 | 0.407 | 0.272 | 0.298 | 0.305 | 0.262 | 0.214 | 0.308
24 | H3255 | 1.07 | 0.674 | 0.991 | 0.621 | 0.733 | 0.306 | 0.305 | 0.315 | 0.302 | 0.26 | 0.237 | 0.233 | 0.243 | 0.167 | 0.424 | 0.347 | 0.385 | 0.308 | 0.324 | 0.316
25 | NCI-H322M | 1 |  | 0.855 | 0.727 | 0.321 | 0.461 | 0.516 | 0.46 | 0.453 | 0.507 | 0.569 | 0.593 | 0.585 | 0.522 | 0.794 |  | 0.891 | 0.689 | 0.301 | 
26 | UMC-11 | 1.07 | 1.21 | 0.999 | 0.99 | 0.598 | 0.345 | 0.378 | 0.365 | 0.305 | 0.835 | 0.853 | 1.17 | 0.976 | 0.724 | 0.384 | 0.365 | 0.334 | 0.28 | 0.237 | 0.34
27 | NCI-H661 | 0.883 | 0.76 | 0.798 | 0.606 | 0.505 | 0.454 | 0.385 | 0.31 | 0.284 | 0.486 | 0.485 | 0.404 |  | 0.473 | 0.274 | 0.267 | 0.297 | 0.274 | 0.243 | 0.413
28 | NCI-H1915 | 0.838 | 0.606 | 0.774 | 0.572 | 0.222 | 0.562 | 0.517 | 0.477 | 0.404 | 0.954 | 1.01 | 1.09 | 0.986 | 0.921 | 0.367 | 0.35 | 0.374 | 0.343 | 0.233 | 0.369
